Patent US8871772B2, “Therapeutic methods and compounds” (Ampio Pharmaceuticals, Inc., priority 2008, dated 2014)

How the values were obtained:
Assay type in all cases: cell-based
[1] = system: AU565 breast cancer cell line; assay: Proliferation of AU565 cancer cells, Promega cell titer assay; details: 96 hours, negative number = increase
Experimental: Assays were performed to determine the effect of Cpd. 5 (synthesis described in Example 1) on proliferation of two cancer cell lines. These two cell lines were STTG grade 4 astrocytoma cell line and AU565 breast cancer cell line. Both cell lines were obtained from American Type Culture Collection, Rockville, Md. (ATCC).
To perform the assays, a 50 mM stock solution of Cpd. 5 was prepared in DMSO and frozen at −80° C. Aliquots of the stock solution were removed and 100 μM dilutions were made in Iscove's modified Dulbecco's medium (IMDM; obtained from ATCC) supplemented with 10% fetal bovine serum (FBS) and penicillin/streptomycin solution. Controls containing equivalent amounts of DMSO to the 100 μM solution were mixed for comparative purposes. 100 μl of the resulting solutions were then added to 96 well culture plates in triplicate and placed in a 37° C. incubator with 5% CO2 to warm.
At this point, cells were removed from passage flasks using trypsin and counted using trypan blue to establish cell counts/ml and viability. For all experiments, viability of cells was greater than 95%. Solutions of 4,000 cells/100 μl were prepared in the medium from above and 100 μl of the solutions were added to each well of the plates. The plates were placed back in the incubator and incubated with the compounds for 96 hours.
Following incubation, cell proliferation was assayed by adding 20 μl Promega cell titer aqueous one reagent to each well. […] The plates were incubated at 37° C. for an additional 4-18 hours to allow the colorimetric assay to develop, and the OD of each well was determined in a microplate reader using a 530 nm filter. The OD of wells containing cell titer reagent in culture medium with no cells was subtracted from the OD of all experimental readings.
The % decrease of the total cell titer signal was determined using the following formula. […] The p values were calculated versus diluent controls.

STTG cells = assay: Cytotoxicity on confluent STTG monolayers, cell titer assay
Experimental: To determine whether the decrease in cell titer signal caused by Cpd. 5 was due to the inhibition of proliferation or to cytotoxicity, STTG and AU565 cells were seeded at 10,000 cells/well in 96-well plates and grown until a confluent monolayer was obtained. Under these conditions, the cells should no longer proliferate. The culture medium was IMDM supplemented with 10% FBS. After the cells reached confluence, the culture medium was removed by aspiration and replaced with fresh medium containing the test compounds (see Table 2 below). The cell cultures were incubated for an additional 24 hours in the presence of the added compounds and then the cell titer signal was assayed by adding 20 μl Promega cell titer aqueous one reagent to each well. The plates were incubated at 37° C. for an additional 2 hours to allow the colorimetric assay to develop, and the OD of each well was determined in a microplate reader using a 530 nm filter. The OD of wells containing cell titer reagent in culture medium with no cells was subtracted from the OD of all experimental readings.
(§1) The % decrease of the total cell titer signal was determined using the following formula. ((Diluent OD−Experimental OD)/Diluent OD))×100. Data are presented in Table 2 as mean % decrease of cell titer signal of three separate experiments, plus or minus standard deviation. In the mean % decrease column, a positive number means a decrease in cell titer signal, while a negative number means an increase. The p values were calculated versus diluent controls.
This experiment was repeated, except using incubations of 18 hours, instead of 24 hours, in the presence of the compounds and 4 hours, instead of 2 hours, for color development.

MMP-9 [2] = assay: Release of MMP-9 from STTG astrocytoma cells, gelatin zymogram; details: data not shown
MMP-9 [3] = assay: Release of MMP-9 from primary human microglial cells, gelatin zymogram; details: supernatants concentrated 10×
endothelial cells = assay: Endothelial cell tube formation; details: 50 μM or 100 μM
Experimental: When endothelial cells are cultured on extracellular matrix protein gels in the presence of angiogenic signals, they arrange themselves into structures loosely resembling capillary blood vessels (“tube formation”). Cpd.

[4] = system: human umbilical vein endothelial cells (HUVECs); assay: Proliferation of HUVECs, Promega cell titer assay; details: 72 hours
Experimental: Assays were performed to determine the effect of Cpd. 5 on proliferation of human umbilical vein endothelial cells (HUVECs). Passage 4-5 HUVECs, human source lot number 13047 (obtained from Lonza) were put into the wells of a 96-well tissue culture plate at 1200 cells/well in 100 μl endothelial growth medium-2 (EGM-2) complete medium (obtained from Lonza). A 50 mM stock solution of Cpd. 5 was prepared in DMSO and frozen at −80° C. Aliquots of the stock solution were removed and dilutions containing from 50 μM to 300 μM Cpd. 5 were made in EGM-2 complete medium (Lonza). Controls containing equivalent amounts of DMSO to the 200 μM solution were mixed for comparative purposes. 100 μl of the resulting solutions were then added to the cells in the 96-well culture plates in triplicate and placed in a 37° C. incubator with 5% CO2 for 72 hours.
Following incubation, cell proliferation was assayed by adding 20 μl Promega cell titer aqueous one reagent to each well. Promega cell titer reagent is a solution containing a tetrazolium dye that is reduced by living cells to a formazan dye, and this reduction is proportional to the number of living cells present in the well. The plates were incubated at 37° C. for an additional 4 hours to allow the colorimetric assay to develop, and the OD of each well was determined in a microplate reader using a 530 nm filter. The OD of wells containing cell titer reagent in culture medium with no cells was subtracted from the OD of all experimental readings.
as §1, with “7” for “2”, “increase in cell titer signal.” for “increase.”

| SMILES | MEAN % DECREASE of cell titer signal ([1]; AU565, 20 μM) [%] | MEAN % DECREASE of cell titer signal (STTG cells; 50 μM, 18 hours) [%] | MEAN % DECREASE of cell titer signal (STTG cells; 50 μM, 24 hours) [%] | MEAN % DECREASE of cell titer signal ([1]; AU565, 50 μM) [%] | effect on the release of MMP-9 from the STTG cells (MMP-9 [2]) | inhibition at 100 µM (MMP-9 [3]; 100 μM, read-out: inhibition of the release of active MMP-9) [%] | inhibition of the release of pro-MMP-9 (MMP-9 [3]; data not shown) | effect on tube formation (endothelial cells) | MEAN % DECREASE of cell titer signal (STTG cells; 10 μM, 18 hours) [%] | MEAN % DECREASE of cell titer signal (STTG cells; 10 μM, 24 hours) [%] | MEAN % DECREASE of cell titer signal (STTG cells; 100 μM, 18 hours) [%] | MEAN % DECREASE of cell titer signal (STTG cells; 100 μM, 24 hours) [%] | MEAN % DECREASE of cell titer signal ([4]; 25 μM) [%] | MEAN % DECREASE of cell titer signal ([4]; 50 μM) [%] | MEAN % DECREASE of cell titer signal ([4]; 100 μM) [%] |
| --- | --- | --- | --- | --- | --- | --- | --- | --- | --- | --- | --- | --- | --- | --- | --- |
| O=c1cc(N2CCOCC2)oc2c(-c3ccccc3)cccc12 [LY294002, reference compound] | 61.95 | 26.27 | 26.12 | – | – | – | – | – | – | – | – | – | – | – | – |
| COC(=O)C(c1ccc(-c2ccccc2)cc1)C1NC(=O)CNC1=O (centres unmarked) [Cpd. 5, biphenyl-4-yl-(3,6-dioxo-piperazin-2-yl)-acetic acid methyl ester] | – | 21.25 | −1.76 | 13.44 | no effect | 35.9 | did not inhibit | no observable effect | 0.81 | −7.13 | 18.96 | −10.79 | −48.60 | −14.44 | 62.04 |
